Laboratory results as given in ChEMBL document CHEMBL4706609, “Development of triazolothiadiazine derivatives as highly potent tubulin polymerization inhibitors: Structure-activity relationship, in vitro and in vivo study” (Eur J Med Chem, 2020).
Active and inactive are the calls of the source. The rule behind the calls is not given here.

What was measured:
[1] = test system: MCF7; test: Antiproliferative activity against human MCF7 cells assessed as reduction in cell growth after 48 hrs by MTT assay; assay type: functional, cell-based; conditions: MCF7, 48 h
[2] = Antitumor activity against human A549 cells xenografted in BALB/c mouse assessed as tumor volume at 8 mg/kg, ip measured for every 2 days upto 30 days (reference value: 652.13 mm^3); assay type: functional; conditions: time 2 day
[3] = test system: A549; test: Induction of apoptosis in human A549 cells assessed as apoptotic cells upto 10 nM measured after 24 hrs by Annexin V-FITC/propidium iodide staining based flow cytometry; assay type: functional, cell-based; conditions: dose nM <=10, time 24.0 hrs
[4] = test system: A549; test: Induction of apoptosis in human A549 cells assessed as viable cells at 10 nM measured after 24 hrs by Annexin V-FITC/propidium iodide staining based flow cytometry (reference value: 95.3%); assay type: functional; conditions: read-out: Activity
[5] = test system: A549; test: Induction of apoptosis in human A549 cells assessed as necrotic cells at 5 nM measured after 24 hrs by Annexin V-FITC/propidium iodide staining based flow cytometry (reference value: 0.508%); assay type: functional
[6] = Antitumor activity against human A549 cells xenografted in BALB/c mouse assessed as tumor growth inhibition at 8 mg/kg, ip measured every 2 days for every 2 days upto 30 days relative to control; assay type: functional; parameters: scale not given: the % may be the effect or the level left; conditions: time 2 day
[7] = test system: A549; test: Induction of apoptosis in human A549 cells assessed as early apoptotic cells at 10 nM measured after 24 hrs by Annexin V-FITC/propidium iodide staining based flow cytometry (reference value: 2.72%); assay type: functional
[8] = test system: A549; test: Induction of apoptosis in human A549 cells assessed as necrotic cells at 10 nM measured after 24 hrs by Annexin V-FITC/propidium iodide staining based flow cytometry (reference value: 0.508%); assay type: functional
[9] = test system: A2780; test: Antiproliferative activity against paclitaxel-resistant human A2780 cells assessed as reduction in cell growth after 48 hrs by MTT assay; assay type: functional, cell-based; conditions: A2780, 48 h
[10] = test system: A549; test: Induction of apoptosis in human A549 cells assessed as late apoptotic cells at 5 nM measured after 24 hrs by Annexin V-FITC/propidium iodide staining based flow cytometry (reference value: 1.51%); assay type: functional
[11] = test system: A549; test: Induction of cell cycle arrest in human A549 cells assessed as accumulation at G2/M phase upto 20 nM incubated for 24 hrs by flow cytometry; assay type: functional, cell-based; conditions: dose nM <=20, time 24.0 hrs
[12] = test system: A549; test: Induction of apoptosis in human A549 cells assessed as necrotic cells at 2.5 nM measured after 24 hrs by Annexin V-FITC/propidium iodide staining based flow cytometry (reference value: 0.508%); assay type: functional
[13] = test system: A549; test: Induction of apoptosis in human A549 cells assessed as early apoptotic cells at 5 nM measured after 24 hrs by Annexin V-FITC/propidium iodide staining based flow cytometry (reference value: 2.72%); assay type: functional
[14] = Antitumor activity against human A549 cells xenografted in BALB/c mouse assessed as tumor growth inhibition at 15 mg/kg, ip measured every 2 days upto 30 days relative to control; assay type: functional; parameters: scale not given: the % may be the effect or the level left; conditions: time 30 day
[15] = species on record: Sus scrofa; test: (§1) Inhibition of porcine brain tubulin polymerization measured for 20 mins by spectrometric assay; assay type: tissue-based
[16] = as §1; assay type: tissue-based, Sus scrofa
[17] = Toxicity in BALB/c mouse xenografted with human A549 cells assessed as change in body weight at 15 mg/kg, ip measured after 30 days; assay type: organism-based; conditions: in vivo, 720 h, time 30 day
[18] = test system: A549; test: Induction of apoptosis in human A549 cells assessed as late apoptotic cells at 10 nM measured after 24 hrs by Annexin V-FITC/propidium iodide staining based flow cytometry (reference value: 1.51%); assay type: functional
[19] = test system: A549; test: Induction of cell cycle arrest in human A549 cells assessed as inhibition of p-cdc2/cyclin B1 activity incubated for 24 hrs by Western blot analysis; assay type: functional, cell-based
[20] = Antitumor activity against human A549 cells xenografted in BALB/c mouse assessed as tumor weight at 60 mg/kg, ip measured every 2 days upto 30 days (reference value: 0.563 g); assay type: functional; conditions: time 2 day
[21] = Antitumor activity against human A549 cells xenografted in BALB/c mouse assessed as tumor weight at 8 mg/kg, ip measured every 2 days for every 2 days upto 30 days (reference value: 0.563 g); assay type: functional; conditions: time 2 day
[22] = test system: HEK293; test: Cytotoxicity against HEK293 cells assessed as reduction in cell growth after 48 hrs by MTT assay; assay type: cell-based; conditions: Homo sapiens, HEK293, 48 h
[23] = test system: HT-29; test: Antiproliferative activity against human HT-29 cells assessed as reduction in cell growth after 48 hrs by MTT assay; assay type: functional, cell-based; conditions: HT-29, 48 h
[24] = test system: A549; test: Induction of apoptosis in human A549 cells assessed as viable cells at 5 nM measured after 24 hrs by Annexin V-FITC/propidium iodide staining based flow cytometry (reference value: 95.3%); assay type: functional; conditions: read-out: Activity
[25] = test system: A549; test: Induction of apoptosis in human A549 cells assessed as decrease in Bcl2 level upto 10 nM incubated for 24 hrs by Western blot analysis; assay type: functional, cell-based; conditions: dose nM <=10, time 24.0 hrs
[26] = test system: A549; test: Induction of apoptosis in human A549 cells assessed as viable cells at 2.5 nM measured after 24 hrs by Annexin V-FITC/propidium iodide staining based flow cytometry (reference value: 95.3%); assay type: functional; conditions: read-out: Activity
[27] = test system: Tubulin; test: Inhibition of tubulin polymerization in human A549 cells assessed as disruption of microtubule organization at 50 nM incubated for 6 hrs by immunofluorescent staining; assay type: cell-based
[28] = test system: A549; test: Antiproliferative activity against human A549 cells assessed as reduction in cell growth after 48 hrs by MTT assay; assay type: functional, cell-based; conditions: A549, 48 h
[29] = Toxicity in BALB/c mouse xenografted with human A549 cells assessed as change in body weight at 60 mg/kg, ip measured after 30 days; assay type: organism-based; conditions: in vivo, 720 h, time 30 day
[30] = Antitumor activity against human A549 cells xenografted in BALB/c mouse assessed as tumor volume at 15 mg/kg, ip measured for every 2 days upto 30 days (reference value: 652.13 mm^3); assay type: functional; conditions: time 2 day
[31] = Antitumor activity against human A549 cells xenografted in BALB/c mouse assessed as tumor weight at 15 mg/kg, ip measured every 2 days upto 30 days (reference value: 0.563 g); assay type: functional; conditions: time 2 day
[32] = test system: HeLa; test: Antiproliferative activity against human HeLa cells assessed as reduction in cell growth after 48 hrs by MTT assay; assay type: functional, cell-based
[33] = test system: A549; test: Antiproliferative activity against cisplatin resistant human A549 cells assessed as reduction in cell growth after 48 hrs by MTT assay; assay type: functional, cell-based; conditions: A549, 48 h
[34] = test system: A549; test: Induction of apoptosis in human A549 cells assessed as early apoptotic cells at 2.5 nM measured after 24 hrs by Annexin V-FITC/propidium iodide staining based flow cytometry (reference value: 2.72%); assay type: functional
[35] = test system: A549; test: Induction of apoptosis in human A549 cells assessed as increase in cleaved PARP level incubated for 24 hrs by Western blot analysis; assay type: functional, cell-based; conditions: dose nM <=10, time 24.0 hrs
[36] = test system: A549; test: Induction of apoptosis in human A549 cells assessed as increase in cleaved caspase-3 level incubated for 24 hrs by Western blot analysis; assay type: functional, cell-based; conditions: dose nM <=10, time 24.0 hrs
[37] = Antitumor activity against human A549 cells xenografted in BALB/c mouse assessed as tumor volume at 60 mg/kg, ip measured for every 2 days upto 30 days (reference value: 652.13 mm^3); assay type: functional; conditions: time 2 day
[38] = test system: A549; test: Induction of cell cycle arrest in human A549 cells assessed as increase in p-cdc2 expression upto 10 nM incubated for 24 hrs by Western blot analysis; assay type: functional, cell-based; conditions: dose nM <=10, time 24.0 hrs
[39] = test system: A549; test: Induction of cell cycle arrest in human A549 cells assessed as accumulation at G2/M phase at 20 nM incubated for 24 hrs by flow cytometry relative to control; assay type: functional
[40] = test system: A549; test: Induction of apoptosis in human A549 cells assessed as late apoptotic cells at 2.5 nM measured after 24 hrs by Annexin V-FITC/propidium iodide staining based flow cytometry (reference value: 1.51%); assay type: functional
[41] = Antitumor activity against human A549 cells xenografted in BALB/c mouse assessed as tumor growth inhibition at 60 mg/kg, ip measured every 2 days upto 30 days relative to control; assay type: functional; parameters: scale not given: the % may be the effect or the level left; conditions: time 30 day

Which IC50 [1] does the source give for `COc1cc(-c2nnc3n2N=C(c2ccc(C)cc2)CS3)cc(OC)c1OC` here?
The IC50 was 98 nM.

And the Activity [2]?
Its Activity is 264 mm3.

And the Activity [3]?
The Activity was “Dose-dependent effect”.

What about the viability at 0.01 µM [4] of the same compound?
The viability at 0.01 µM was 77.6%.

What about the Activity [5] of the same compound?
Its Activity is 0.694%.

And the Activity [6]?
The Activity was 58.4%.

And the Activity [7]?
The Activity was 8.66%.

And the Activity [8]?
The Activity was 0.666%.

What about the IC50 [9] of the same compound?
Its IC50 is 18800 nM.

What about the Activity [10] of the same compound?
Its Activity is 9.97%.

And the Activity [11]?
Its Activity is “Dose-dependent effect”.

And the Activity [12]?
The Activity was 0.529%.

And the Activity [13]?
The Activity was 6.58%.

And the Activity [14]?
The Activity was 29.5%.

And the inhibition [15]?
The inhibition was “Dose-dependent effect”.

And the IC50 [16]?
Its IC50 is 1690 nM.

What about the Activity [17] of the same compound?
The Activity was “Non-Toxic”.

What about the Activity [18] of the same compound?
Its Activity is 13.1%.

What about the Activity [19] of the same compound?
Its Activity is “Active”.

What about the Activity [20] of the same compound?
Its Activity is 0.313 g.

And the Activity [21]?
Its Activity is 0.234 g.

What about the IC50 [22] of the same compound?
The IC50 was greater than 100000 nM.

And the IC50 [23]?
The IC50 was 23 nM.

What about the viability at 0.005 µM [24] of the same compound?
Its viability at 0.005 µM is 82.8%.

And the Activity [25]?
Its Activity is “Active”.

And the viability at 0.0025 µM [26]?
The viability at 0.0025 µM was 88.8%.

What about the IC50 [27] of the same compound?
Its IC50 is “Active”.

And the IC50 [28]?
Its IC50 is 50 nM.

And the Activity [29]?
Its Activity is “Non-Toxic”.

What about the Activity [30] of the same compound?
The Activity was 449.88 mm3.

What about the Activity [31] of the same compound?
Its Activity is 0.397 g.

And the IC50 [32]?
The IC50 was 4 nM.

What about the IC50 [33] of the same compound?
The IC50 was 3950 nM.

And the Activity [34]?
Its Activity is 5.36%.

What about the Activity [35] of the same compound?
The Activity was “Dose-dependent effect”.

And the Activity [36]?
Its Activity is “Dose-dependent effect”.

And the Activity [37]?
Its Activity is 354.12 mm3.

And the Activity [38]?
Its Activity is “Dose-dependent effect”.

What about the Activity [39] of the same compound?
The Activity was 91.56%.

What about the Activity [40] of the same compound?
Its Activity is 5.36%.

What about the Activity [41] of the same compound?
Its Activity is 44.4%.
